From PMC3210067 (Nature chemical biology, 2011)
Non-standard residues stand in square brackets, D forms with d. Residues, ends and D or L forms follow the SMILES beside them. NMeY = CN[C@@H](Cc1ccc(O)cc1)C(=O)O; NMeL = CN[C@@H](CC(C)C)C(=O)O; dNMeL = CN[C@H](CC(C)C)C(=O)O

Legend:
[1] = human liver microsomal stability; type: in vitro ADME; details: liver microsomes, pH 7.4
[2] = rat liver microsomal stability; type: in vitro ADME; details: liver microsomes, pH 7.4
[3] = H/D exchange studies; type: physicochemical; details: for H/D exchange of amide N-H (in words): CDCl3, 5% MeOH-d4/0.5% HOAc-d4
[4] = in vivo; details: male, Wistar-Han, rat, po, 10 mg/kg
[5] = human plasma stability; type: in vitro ADME; details: pH 7.4
[6] = CDCl3, 5% CD3OD / 0.5% CD3CO2D, 297 K

With `CC(C)C[C@@H]1NC(=O)[C@H](CC(C)C)N(C)C(=O)[C@@H](CC(C)C)N(C)C(=O)[C@H](CO)NC(=O)[C@H](Cc2ccc(O)cc2)N(C)C(=O)[C@H]2CCCN2C1=O` [3 L^1S] (cyclo(L[dP][NMeY]S[dNMeL][NMeL])) the microsomal CLint at 1 µM [1] was 54 µL/min/mg and the microsomal CLint at 1 µM [2] was 98 µL/min/mg.

For `CC(C)C[C@@H]1NC(=O)[C@H](Cc2ccc(O)cc2)NC(=O)[C@H]2CCCN2C(=O)[C@H](CC(C)C)NC(=O)[C@H](CC(C)C)NC(=O)[C@@H](CC(C)C)NC1=O` [compound 1, cyclo[Leu, D-Leu, Leu, Leu, D-Pro, Tyr]] (cyclo(LL[dP]YL[dL])), the “H/D exchange of amide N-H (in words)” value [3] was “exchanged within minutes or hours”.

For `CC(C)C[C@@H]1NC(=O)[C@H](CC(C)C)NC(=O)[C@@H](CC(C)C)NC(=O)[C@H](Cc2ccc(O)cc2)NC(=O)[C@H]2CCCN2C(=O)[C@H](CC(C)C)NC1=O` [compound 2] (cyclo(LLL[dP]Y[dL])), the “H/D exchange of amide N-H (in words)” value [3] was “exchanged with solvent over a few hours”.

In the case of `CC(C)C[C@@H]1NC(=O)[C@H](Cc2ccc(O)cc2)N(C)C(=O)[C@H]2CCCN2C(=O)[C@H](CC(C)C)NC(=O)[C@H](CC(C)C)N(C)C(=O)[C@@H](CC(C)C)N(C)C1=O` [compound 3] (cyclo(L[dNMeL][NMeL]L[dP][NMeY])), the “t1/2 (H-D exchange) NH (a)” value [3, 6] is reported as over 24 h, the “t1/2 (H-D exchange) NH (b)” value [3, 6] is reported as over 24 h and the “H/D exchange of amide N-H (in words)” value [3] is reported as “over a period of several days”. It also gave an AUC [4] of 10.5 ng·h/mL.

`CC(C)C[C@@H]1NC(=O)[C@H](CC(C)C)N(C)C(=O)[C@@H](CC(C)C)N(C)C(=O)[C@H](Cc2ccc(O)cc2)N(C)C(=O)[C@H]2CCCN2C(=O)[C@H](CC(C)C)N(C)C1=O` [compound 4] (cyclo(L[NMeL][dP][NMeY][dNMeL][NMeL])) gave a microsomal CLint at 1 µM [1] of over 320 µL/min/mg, a microsomal CLint at 1 µM [2] of over 491 µL/min/mg and a half-life at 1 µM [5] of over 6 h. For the same molecule, the “H/D exchange of amide N-H (in words)” value [3] was “negligible exchange over 24 h”.

`CC(C)C[C@@H]1C(=O)N(C)[C@@H](CC(C)C)C(=O)N(C)[C@@H](CC(C)C)C(=O)N2CCC[C@@H]2C(=O)N(C)[C@@H](Cc2ccc(O)cc2)C(=O)N(C)[C@@H](CC(C)C)C(=O)N1C` [compound 5] (cyclo([NMeL][NMeL][dP][NMeY][NMeL][dNMeL])) gave a microsomal CLint at 1 µM [1] of over 320 µL/min/mg, a microsomal CLint at 1 µM [2] of 317 µL/min/mg and a half-life at 1 µM [5] of over 6 h.

Molecule `CC(C)C[C@@H]1C(=O)N(C)[C@@H](CC(C)C)C(=O)N(C)[C@@H](CC(C)C)C(=O)N(C)[C@@H](CC(C)C)C(=O)N2CCC[C@@H]2C(=O)N(C)[C@@H](Cc2ccc(O)cc2)C(=O)N1C` [compound 6] (cyclo([NMeL][NMeL][NMeL][dP][NMeY][dNMeL])) has a microsomal CLint at 1 µM [1] of 191 µL/min/mg, a microsomal CLint at 1 µM [2] of 62.6 µL/min/mg and a half-life at 1 µM [5] of over 6 h.
